Data on 2 molecules can be found in the NIST ThermoML archive (doi:10.1016/j.tca.2015.05.002).

± gives the expanded uncertainty stated by the source.

A short description of data set [1]: Molar enthalpy of transition or fusion. The following applies: DSC.
The conditions of data set [2]: DTA.

Turning to `CCCCC(=O)[O-].CCCCC(=O)[O-].CCCCC(=O)[O-].[La+3]` [lanthanum(III) pentanoate], the “Molar enthalpy of transition or fusion” value came to 1.69 ± 0.136 kcal/mol in data set [1] (Crystal 1) and 0.717 ± 0.127 kcal/mol in data set [1] (Smectic liquid crystal). The results for the Triple point temperature in data set [2] (Crystal 1), in data set [2] (Crystal 2) and in data set [2] (Smectic liquid crystal) were 410.95 ± 10 K, 366.15 ± 10 K and 451.65 ± 10 K, respectively.

`CCCCCC(=O)[O-].CCCCCC(=O)[O-].CCCCCC(=O)[O-].[La+3]` [lanthanum(III) hexanoate]: the entries for the “Molar enthalpy of transition or fusion” value in data set [1] (Crystal 1), in data set [1] (Crystal 2) and in data set [1] (Smectic liquid crystal) were 1.1 ± 0.129 kcal/mol, 1.49 ± 0.134 kcal/mol and 0.32 ± 0.124 kcal/mol, respectively. The Triple point temperature is given as 406.85 ± 10 K in data set [2] (Crystal 1), 380.45 ± 10 K in data set [2] (Crystal 2) and 459.05 ± 0.5 K in data set [2] (Smectic liquid crystal).
